From ChEMBL document CHEMBL4834424, “Targeting Chikungunya Virus Replication by Benzoannulene Inhibitors” (J Med Chem, 2021)
Values after ≈ are worked out from the molar mass of the structure shown.

Tests used:
Chikungunya virus [1] = assay: Antiviral activity against CHIKV infected in human NHDF cells assessed as reduction in virus titer in cell supernatant by measuring inhibition of plaque formation using Vero cells at 10 uM pretreated with NHDF cells followed by infected with virus incubated for 24 hrs and measured following infection of supernatants with Vero cells for 48 hrs by plaque based methylene blue dye analysis; format: functional; settings: time 72 hrs
Chikungunya virus [2] = assay: Antiviral activity against CHIKV infected in human NHDF cells assessed as reduction in virus titer in cell supernatant by measuring inhibition of plaque formation using Vero cells pretreated with NHDF cells followed by infected with virus incubated for 24 hrs and measured following infection of supernatants with Vero cells for 48 hrs by plaque based methylene blue dye analysis; format: functional, organism-based
[3] = Cytotoxicity against human NHDF cells assessed as cell viability measured after 24 hrs by Cell Titer Glo luminescent assay; format: cell-based; settings: NHDF cells
[4] = Octanol-aqueous buffer distribution coefficient, log D of the compound by LC-MS analysis; format: physicochemical
[5] = Metabolic stability in human liver microsomes assessed as half life in presence of NADPH incubated up to 45 mins by LC-MS/MS analysis; format: ADME, Microsome
[6] = Metabolic stability in mouse liver microsomes assessed as half life in presence of NADPH incubated up to 45 mins by LC-MS/MS analysis; format: ADME, Microsome; design: unit not given here; settings: for half-life: liver microsomes; for t1/2: microsomes, 0.75 h
[7] = Aqueous solubility of the compound; format: physicochemical

Compound	log(activity) (Chikungunya virus [1])	EC50 (Chikungunya virus [2]) [µM]	CC50 at 24 h [3] [µM]	logD [4]	half-life [5] [h]	half-life [6]	solubility ([7]; aqueous, read-out: solubility) [µM]	solubility ([7]; buffer) [µM]	t1/2 [6]
CC(C)(C)c1ccc(C(=O)Nc2cc3c(cc2OCc2ccccn2)CCC3)cc1	1.2	9	> 30						
CC(C)(C)c1ccc(NC(=O)c2cc3c(cc2OC(F)F)CCCCC3)cc1	1.4		> 30	5	70	660			
CC(=O)Oc1cc2c(cc1NC(=O)c1ccc(C(C)(C)C)cc1)CCCCC2	52	2.8	> 30	5	7		< 1		
COc1nc2c(cc1C(=O)Nc1ccc(C(C)(C)C)cn1)CCCCC2	0.27		> 30	> 4.7	88	3960	< 1		
CC(C)(C)c1ccc(C(=O)Nc2cc3c(cc2OCc2ccccn2)CCCC3)cc1	1.1	9.1	> 30						
COc1cc2c(cc1NC(=O)c1ccc(C(C)(C)O)cc1)CCCCC2	1.6	2.45	> 30	4	254	1140	8 (≈ 2.83 µg/mL)		
COc1cc2c(nc1NC(=O)c1ccc(C(C)(C)C)cc1)CCCCC2	3.18	0.59	> 30						
COc1cc2c(cc1NC(=O)c1ccc(C(O)(C(F)(F)F)C(F)(F)F)cc1)CCCCC2	3.1	2.8	> 30	5	70	660	< 1		
COc1nc2c(cc1C(=O)Nc1ncc(C(C)(C)C)cn1)CCCCC2	1.95	9	> 30	3	67	1620		64 (≈ 22.7 µg/mL)	
CC(C)(C)c1ccc(C(=O)Nc2cc3c(cc2OC(F)(F)F)CCCCC3)cc1		3.7	> 30	5				8 (≈ 3.24 µg/mL)	127
COc1cc2c(cc1NC(=O)c1ccc(C(C)(C)C)cc1)CCCCN2	3.9	3.3	> 30						
COc1cc2c(cc1NC(=O)c1ccc(C(C)(C)C)cc1)CCCCN2C	<1		> 30						
CC(C)(C)c1ccc(C(=O)Nc2cc3c(cc2F)CCCCC3)cc1	4.9	0.8	> 30	4	28		33 (≈ 11.2 µg/mL)		4
CC(C)(C)c1ccc(C(=O)Nc2ccc3c(c2)CCCCC3)cc1	3.9	0.7	> 30	4	33	1380		35 (≈ 11.3 µg/mL)	
COc1cc2c(nc1NC(=O)c1ccc(C(C)(C)C)cc1)CCCC2	1.3		> 30						
COc1cc2c(cc1NC(=O)c1ccc(C3(O)CCC3)cc1)CCCCC2	<1		> 30						
COc1cc2c(cc1NC(=O)c1ccc(C3(C(F)(F)F)CC3)cc1)CCCCC2	1	1.3	> 30	6	67	1320	< 1		
CC(C)(C)c1ccc(C(=O)Nc2cc3c(cc2C(F)(F)F)CCCCC3)cc1	0		> 30						
COc1cc2c(cc1NC(=O)c1ccc(C(C)(C)C#N)cc1)CCCCC2	1.7	1.6	> 30	4	51	720	35 (≈ 12.7 µg/mL)		
COc1cc2c(cc1NC(=O)c1ccc(C(C)(C)C)cc1)CCCC(=O)N2	<1		> 30						

Compound	log(activity) (Chikungunya virus [1])	EC50 (Chikungunya virus [2]) [µM]	CC50 at 24 h [3] [µM]	logD [4]	half-life [5] [h]	half-life [6]	solubility ([7]; aqueous, read-out: solubility) [µM]	solubility ([7]; buffer) [µM]	t1/2 [6]
Cc1cc2c(cc1NC(=O)c1ccc(C(C)(C)C)cc1)CCCCC2	3.5	2.41	> 30	4	63	660	< 1		
COc1cc2c(cc1NC(=O)c1ccc(C(C)(C)CO)cc1)CCCCC2	3.1	7.12	> 30						
COc1cc2c(cc1NC(=O)c1ccc(C(C)(C)C)cc1)CCCC(=O)N2C(C)C	1.7	5.1	> 30						
COCCOc1cc2c(cc1NC(=O)c1ccc(C(C)(C)C)cc1)CCCCC2	0		> 30						
CCOc1cc2c(cc1NC(=O)c1ccc(C(C)(C)C)cc1)CCC2	1	6.23	> 30						
CC(C)(C)c1ccc(C(=O)Nc2cc3c(cc2C#N)CCCCC3)cc1	1.8	4.4	> 30	5	76	1860	< 1		
COc1nc2c(cc1NC(=O)c1ccc(C(C)(C)C)cc1)CCCC2	6.7	2.3	> 30						
COc1cc2c(cc1C(=O)Nc1ccc(-c3cc[nH]n3)cc1)CCCCC2	5.9	3.4	> 30						
CC(C)(C)c1ccc(C(=O)Nc2cc3c(cc2N)CCCCC3)cc1	0		> 30						
[2H]C([2H])([2H])Oc1cc2c(cc1NC(=O)c1ccc(C(C)(C)C)cc1)CCCCC2	23	1	> 30	3	31		28 (≈ 9.93 µg/mL)		
COc1nc2c(cc1C(=O)Nc1ccc(C(C)(C)C)cc1)CCCCC2	1.3		> 30	4.6	102	2700	1.8 (≈ 0.634 µg/mL)		
COc1cc2c(cc1NC(=O)c1ccc(C(C)(C)C)cc1)CCC2	<1		> 30						
CCc1cc2c(cc1C(=O)Nc1ccc(C(C)(C)C)cc1)CCCCC2	0.2		> 30						
CCCOc1cc2c(cc1NC(=O)c1ccc(C(C)(C)C)cc1)CCCCC2	1	7.05	> 30						
CCOc1cc2c(cc1C(=O)Nc1ccc(C(C)(C)C)cc1)CCCCC2	1.5	3.8	> 30						
CCOc1cc2c(cc1NC(=O)c1ccc(C(C)(C)C)cc1)CCCCC2	2.2	5.19	> 30						
COc1cc2c(cc1NC(=O)c1ccc(C(C)(C)C(F)(F)F)cc1)CCCCC2	1.8	3.47	> 30	6	106	2100	< 1		
CC(C)(C)c1ccc(C(=O)Nc2cc3c(cc2[N+](=O)[O-])CCCCC3)cc1	0		> 30						
CC(C)(C)c1ccc(C(=O)Nc2cc3c(cc2CO)CCCCC3)cc1	<1		> 30	4	64	1320	< 1		
